The conditions of this data set: amide bond, 13-membered ring.

Values joined by “and” are separate entries in the source; they are usually repeats but may differ in a detail not shown here. Equal entries are not always repeated. Where two headings read alike, the source gives them in different places.

In the case of `Cc1cccc(C)c1-c1cc2nc(n1)NS(=O)(=O)c1cccc(c1)C(=O)N(C1CCN(C(=O)OC(C)(C)C)C1)[C@H](CC(C)C)CO2` (stereo partly shown), the ring closure, isolated yield (from Cc1cccc(C)c1-c1cc(OC[C@@H](CC(C)C)NC2CCN(C(=O)OC(C)(C)C)C2)nc(NS(=O)(=O)c2cccc(C(=O)O)c2)n1, COMU/DIPEA, DMF, 10.0 mM, 16.0 h, 2 steps) was found to be 28%.

In the case of `Cc1cccc(C)c1-c1cc2nc(n1)NS(=O)(=O)c1cccc(c1)C(=O)N(C1CC3(CCN(C(=O)OC(C)(C)C)CC3)C1)C[C@@H](C)O2`, the ring closure, isolated yield (from Cc1cccc(C)c1-c1cc(O[C@H](C)CNC2CC3(CCN(C(=O)OC(C)(C)C)CC3)C2)nc(NS(=O)(=O)c2cccc(C(=O)O)c2)n1, HATU/DIEA, DMF, 8.8 mM, 6.0 h, 2 steps) turned out to be 28%.

The molecule `Cc1cccc(C)c1-c1cc2nc(n1)NS(=O)(=O)c1cccc(c1)C(=O)N(C1CC(OCc3ccccc3)C1)[C@H](CC(C)(C)C)CO2` (stereo partly shown) displayed a ring closure, isolated yield (from Cc1cccc(C)c1-c1cc(OC[C@@H](CC(C)(C)C)NC2CC(OCc3ccccc3)C2)nc(NS(=O)(=O)c2cccc(C(=O)O)c2)n1, COMU/DIEA, DMF, 65.1 mM, 25.0 °C, 16.0 h) of 82%. For the molecule `Cc1cccc(C)c1-c1cc2nc(n1)NS(=O)(=O)c1cccc(c1)C(=O)N(C1CC3(CC(NC(=O)OC(C)(C)C)C3)C1)[C@H](CC1(C(F)(F)F)CC1)CO2` (stereo partly shown), the ring closure, isolated yield (from Cc1cccc(C)c1-c1cc(OC[C@@H](CC2(C(F)(F)F)CC2)NC2CC3(CC(NC(=O)OC(C)(C)C)C3)C2)nc(NS(=O)(=O)c2cccc(C(=O)O)c2)n1, HATU/DIEA, DMF, 99.2 mM, 18.0 h) worked out at 74%. For the molecule `Cc1cccc(C)c1-c1cc2nc(n1)NS(=O)(=O)c1cccc(c1)C(=O)N(C1CC3(CCN(C(=O)OC(C)(C)C)C3)C1)[C@H](CC(C)C)CO2` (stereo partly shown), the ring closure, isolated yield (from Cc1cccc(C)c1-c1cc(OC[C@@H](CC(C)C)NC2CC3(CCN(C(=O)OC(C)(C)C)C3)C2)nc(NS(=O)(=O)c2cccc(C(=O)O)c2)n1, HATU/DIEA, DMF, 25.0 °C, 3.0 h, 2 steps) was 67%. `Cc1cccc(C)c1-c1cc2nc(n1)NS(=O)(=O)c1cccc(c1)C(=O)N(C1CC(C(=O)OC(C)C)(C(=O)OC(C)C)C1)[C@H](CC(C)(C)C)CO2` returned a ring closure, isolated yield (from Cc1cccc(C)c1-c1cc(OC[C@@H](CC(C)(C)C)NC2CC(C(=O)OC(C)C)(C(=O)OC(C)C)C2)nc(NS(=O)(=O)c2cccc(C(=O)O)c2)n1, COMU/DIEA, DMF, 18.6 mM, 25.0 °C, 21.0 h) of 20%. `COC(=O)C1CC(N2C(=O)c3cccc(c3)S(=O)(=O)Nc3nc(cc(-c4c(C)cccc4C)n3)OC[C@H]2CC(C)(C)C)C1` (stereo partly shown): the ring closure, isolated yield (from COC(=O)C1CC(N[C@@H](COc2cc(-c3c(C)cccc3C)nc(NS(=O)(=O)c3cccc(C(=O)O)c3)n2)CC(C)(C)C)C1, COMU/DIEA, DMF, 25.2 mM, 25.0 °C, 21.0 h) is 25% and 34%. For the setting “from Cc1cccc(C)c1-c1cc(OC[C@@H](CC2(C(F)(F)F)CC2)NC2CC(NC(=O)OC(C)(C)C)C2)nc(NS(=O)(=O)c2cccc(C(=O)O)c2)n1, HATU/DIPEA, DMF, 28.6 mM, 16.0 h”, `Cc1cccc(C)c1-c1cc2nc(n1)NS(=O)(=O)c1cccc(c1)C(=O)N(C1CC(NC(=O)OC(C)(C)C)C1)[C@H](CC1(C(F)(F)F)CC1)CO2` (stereo partly shown) registered a ring closure, isolated yield of 61%.

For the setting “from CC(C)C[C@H](COc1cc(Cl)nc(NS(=O)(=O)c2cccc(C(=O)O)c2)n1)NC1CC2(CC2)C1, HATU/DIEA, DMF, 16.5 mM, 17.0 h”, `CC(C)C[C@@H]1COc2cc(Cl)nc(n2)NS(=O)(=O)c2cccc(c2)C(=O)N1C1CC2(CC2)C1` returned a ring closure, isolated yield of 58%. `COC(=O)C1CC2(C1)CC(N1C(=O)c3cccc(c3)S(=O)(=O)Nc3nc(cc(-c4c(C)cccc4C)n3)OC[C@H]1CC(C)(C)C)C2` (stereo partly shown) returned a ring closure, isolated yield (from COC(=O)C1CC2(CC(N[C@@H](COc3cc(-c4c(C)cccc4C)nc(NS(=O)(=O)c4cccc(C(=O)O)c4)n3)CC(C)(C)C)C2)C1, COMU/DIEA, DMF, 16.0 h, 2 steps) of 51%.

Regarding `Cc1cccc(C)c1-c1cc2nc(n1)NS(=O)(=O)c1cccc(c1)C(=O)N(C1[C@@H]3C[C@H]1CN(C(=O)OC(C)(C)C)C3)[C@H](CC(C)(C)C)CO2` (stereo partly shown), the ring closure, isolated yield (from Cc1cccc(C)c1-c1cc(OC[C@@H](CC(C)(C)C)NC2C3CC2CN(C(=O)OC(C)(C)C)C3)nc(NS(=O)(=O)c2cccc(C(=O)O)c2)n1, COMU/DIEA, DMF, 8.4 mM, 25.0 °C, 24.0 h) turned out to be 17%. `Cc1cccc(C)c1-c1cc2nc(n1)NS(=O)(=O)c1cccc(c1)C(=O)N(C1CC(OCc3ccccc3)C1)[C@H](CC(C)C)CO2` (stereo partly shown) yielded a ring closure, isolated yield (from Cc1cccc(C)c1-c1cc(OC[C@@H](CC(C)C)NC2CC(OCc3ccccc3)C2)nc(NS(=O)(=O)c2cccc(C(=O)O)c2)n1, HATU/DIEA, DMF, 77.3 mM, 15.0 h) of 85%. Take `Cc1cccc(C)c1-c1cc2nc(n1)NS(=O)(=O)c1cccc(c1)C(=O)N(C1CC3(C1)CC1(C3)OCCO1)[C@H](CC(C)(C)C)CO2`: the ring closure, isolated yield (from Cc1cccc(C)c1-c1cc(OC[C@@H](CC(C)(C)C)NC2CC3(C2)CC2(C3)OCCO2)nc(NS(=O)(=O)c2cccc(C(=O)O)c2)n1, COMU/DIEA, DMF, 71.6 mM, 16.0 h) is 76%.

As to `COC(=O)C1CC2(C1)CC(N1C(=O)c3cccc(c3)S(=O)(=O)Nc3nc(cc(-c4c(C)cccc4C)n3)OC[C@H]1CCC(C)C)C2` (stereo partly shown), the ring closure, isolated yield (HATU/DIEA, DMF, 25.0 °C, 2 steps) was 20%. For the molecule `COC(=O)CC1CC(N2C(=O)c3cccc(c3)S(=O)(=O)Nc3nc(cc(-c4c(C)cccc4C)n3)OC[C@H]2CC(C)(C)C)C1` (stereo partly shown), the ring closure, isolated yield (from COC(=O)CC1CC(N[C@@H](COc2cc(-c3c(C)cccc3C)nc(NS(=O)(=O)c3cccc(C(=O)O)c3)n2)CC(C)(C)C)C1, COMU/DIEA, DMF, 47.0 mM, 18.0 h) came to 79%. In the case of `Cc1cccc(C)c1-c1cc2nc(n1)NS(=O)(=O)c1cccc(c1)C(=O)N(C1CC3(CCN(C(=O)OC(C)(C)C)CC3)C1)[C@@H](CC(C)C)CO2`, the ring closure, isolated yield (from Cc1cccc(C)c1-c1cc(OC[C@H](CC(C)C)NC2CC3(CCN(C(=O)OC(C)(C)C)CC3)C2)nc(NS(=O)(=O)c2cccc(C(=O)O)c2)n1, HATU/DIEA, DMF/THF, 16.0 h, 2 steps) was determined as 18%. `Cc1cccc(C)c1-c1cc2nc(n1)NS(=O)(=O)c1cccc(c1)C(=O)N(C1CC3(C1)CN(C(=O)OC(C)(C)C)C3)[C@H](CC1(C(F)(F)F)CC1)CO2` registered a ring closure, isolated yield (from Cc1cccc(C)c1-c1cc(OC[C@@H](CC2(C(F)(F)F)CC2)NC2CC3(C2)CN(C(=O)OC(C)(C)C)C3)nc(NS(=O)(=O)c2cccc(C(=O)O)c2)n1, HATU/TEA, DMF, 35.1 mM, 22.0 h) of 49%. With `Cc1cccc(C)c1-c1cc2nc(n1)NS(=O)(=O)c1cccc(c1)C(=O)N(C1CC3(COC(=O)N3)C1)[C@H](CC(C)(C)C)CO2` (stereo partly shown), where the note is “from Cc1cccc(C)c1-c1cc(OC[C@@H](CC(C)(C)C)NC2CC3(COC(=O)N3)C2)nc(NS(=O)(=O)c2cccc(C(=O)O)c2)n1, COMU/DIEA, DMF, 13.0 mM, 25.0 °C, 3.0 h, 2 steps”, the ring closure, isolated yield was 8% and 3%.

With `CC(C)C[C@@H]1COc2cc(Cl)nc(n2)NS(=O)(=O)c2cccc(c2)C(=O)N1C1CC2(CCN(C(=O)OC(C)(C)C)CC2)C1`, the ring closure, isolated yield (from CC(C)C[C@H](COc1cc(Cl)nc(NS(=O)(=O)c2cccc(C(=O)O)c2)n1)NC1CC2(CCN(C(=O)OC(C)(C)C)CC2)C1, HATU/TEA, DMF, 154.9 mM, 25.0 °C, 16.0 h) is 41%.

The values above are taken from patent US20230382925A1, “MODULATORS OF CYSTIC FIBROSIS TRANSMEMBRANE CONDUCTANCE REGULATOR” (VERTEX PHARMACEUTICALS INCORPORATED, priority 2020, published 2023).
